This note sets out measurements from article PMC9166630, “SAR Probing of KX2-391 Provided Analogues With Juxtaposed Activity Profile Against Major Oncogenic Kinases” (Frontiers in Oncology, 2022).

Test [1] addresses T1, JAK1~b (Homo sapiens, UniProt P23458).
T1 construct: The compound 4e was spiked into HL60 cell lysate at different concentrations; endogenous in cells; host or cells: HL60 cell lysate
Nature of the test: PamChip tyrosine kinase microarray, JAK1~b. Type of test: biochemical. The following applies: 4e 0.1 µM, HL60 lysate. The method, then:
(§1) The changes in kinase activities induced by treatment with 4e were monitored within the HL60 cell lines using PamGene’s (Hertogenbosch, Netherlands) PamChip® peptide microarray profiler, which quantifies the activities of 144 tyrosine kinases (YK) ([29], [30]) (Figure 7). Results are provided as a log fold change (LFC) heatmap and Mean Kinase Statistic. From the LFC it is apparent that compound 4e, at a concentration of 0.1 µM, induced sizable changes to the activity of several kinases within the cell signaling YK profile (Figure 7A).
(§2) An Upstream Kinase tool was used to generate a putative list of kinases responsible for phosphorylating the phospho-sites on the PamChip (Figure 7B) ([31]). It is an interpretation and is highly dependent on the contents of the underlying phosphorylation databases. A Kinase Score was used for ranking kinases based on their significance and specificity in terms of the set of peptides used for the corresponding kinase. Kinase Statistics indicates the overall change of the peptide set that represents the kinase. Kinase statistics value <0 indicates lower kinase activity in the compound spiked lysate and vice versa ([32], [33]). Table 5 lists the 20 most changed kinases within treated HL60 cell lysates by 0.1 μM 4e, ranked according to their Kinase Score.
(§3) The compound 4e was spiked into HL60 cell lysate at different concentrations (0.001, 0.01, 0.1, 1, 10 and 50 μM). In addition, DMSO was also spiked in HL60 lysate at low concentration (2% v/v) as control. Samples were profiled on PamGene’s Tyrosine Kinase (PTK) arrays in technical replicates, covering a total of 196 phosphorylation sites. Frozen HL60 cultured cell pellet was sent to PamGene. At PamGene, cells were lysed using a lysis buffer and proteases inhibitors cocktail. Protein concentration was measured using standard Bradford assay as per PamGene SOPs. These lysates were further used for generating the PTK activity profiles. For spiking, 4e was received as powder form and dissolved in DMSO at PamGene facility followed by storing at -20°C in small aliquots. PamGene used its in-house bioinformatics toolbox in combination with other methods to generate hypotheses of signaling pathways.

Test [2] has as its target T2, EphA2 (Homo sapiens, UniProt P29317).
T2 construct: endogenous in cells; host or cells: HL60 lysate
Nature of the test: PamChip tyrosine kinase microarray, EphA2. In kind it is biochemical. The following applies: 4e 0.1 µM, HL60 lysate. The method, then: as §1, §2, §3

In test [3] the test system is C-Jun. Nature of the test: Human phosphokinase array, c-Jun. In kind it is cell-based. The text has this:
The kinome tree representation (Figure 7C), which was generated by raising the Kinase Score cut-off to >1.2, confirmed that, unlike tirbanibulin and our prototype molecule KX1-136, 4e’s effects were more observable on kinases other than the Src family such as the Eph and TEC families. […] Therefore, we screened compound 4e using the Human Phospho-Kinase Array® kit from R&D systems (Minneapolis, MN, USA). In this system, 35 phosphorylated YK and serine-threonine kinase (STK) enzymes in the untreated (control) and treated (test) HL60 cell lysates were captured on nitrocellulose membrane, pre-spotted with phosphokinase-specific capture antibodies, and then visualized by detection antibody cocktails (Figure 8). The difference in the spot intensity between untreated (control) and treated cells is proportional to change in the amount of the phosphorylated protein induced by 4e.
The phosphorylation profile of 48 kinases was performed using the Proteome Profiler Human Phospho-Kinase Antibody Array Kit by R&D Systems (Minneapolis, MN, USA) according to the protocol. Briefly, the total cellular protein was extracted using the Lysis buffer and was quantified using Bio-Rad DC Protein Assay kit (Hercules, CA, USA). Nitrocellulose membrane set (A&B), pre-spotted with kinase-specific capture antibodies, were first blocked with Array Buffer-1 at RT for 30 min on a rocking platform shaker. Approximately 600 µg of protein concentrate was diluted in the buffer provided and was added onto the membrane set, and the membranes were incubated overnight at 4°C in an 8-well plate. Subsequently, membranes were washed with Wash Buffer and incubated with appropriate Detection Antibody cocktails for 2 h at RT. Streptavadin-HRP (1:2000) was added onto membranes and incubated for 30 min at RT. Membranes were washed, and Chemiluminescent Detection Reagents 1&2 were applied in equal volumes for detection. The signals were detected on C-DiGit®Blot Scanner (LI-COR, Odyssey Imaging Systems, Lincoln, Nebraska, USA) using Image Studio 5.0 software.

In test [4] the target is T3, TEC (Homo sapiens, UniProt P42680).
T3 construct: endogenous in cells; host or cells: HL60 lysate
T3 sequence (P42680 1-631): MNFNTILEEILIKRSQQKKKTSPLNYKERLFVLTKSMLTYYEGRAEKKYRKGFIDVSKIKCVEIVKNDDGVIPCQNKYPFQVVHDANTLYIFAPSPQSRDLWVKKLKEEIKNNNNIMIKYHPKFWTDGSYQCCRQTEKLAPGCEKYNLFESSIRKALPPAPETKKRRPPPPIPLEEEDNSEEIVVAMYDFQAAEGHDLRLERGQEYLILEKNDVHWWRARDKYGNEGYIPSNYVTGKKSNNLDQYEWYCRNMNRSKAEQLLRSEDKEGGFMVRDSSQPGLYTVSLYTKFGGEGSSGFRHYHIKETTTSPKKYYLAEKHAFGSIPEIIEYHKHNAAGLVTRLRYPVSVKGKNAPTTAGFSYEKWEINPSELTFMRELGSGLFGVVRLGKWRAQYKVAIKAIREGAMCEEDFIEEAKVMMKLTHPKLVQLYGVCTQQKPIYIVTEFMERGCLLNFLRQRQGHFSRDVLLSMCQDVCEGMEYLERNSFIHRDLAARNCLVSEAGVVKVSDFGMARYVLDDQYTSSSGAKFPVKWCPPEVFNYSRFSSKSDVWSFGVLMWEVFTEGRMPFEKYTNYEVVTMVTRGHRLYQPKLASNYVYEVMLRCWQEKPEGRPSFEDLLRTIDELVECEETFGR
The experiment in a line: PamChip tyrosine kinase microarray, TEC. Particulars: 4e 0.1 µM, HL60 lysate. Type of test: biochemical. As for the experimental part:
as §1, §2, §3

“And” between values parts separate entries of the source, which are not always exact repeats. Identical values can stand only once.

T2 sequence (P29317 24-976): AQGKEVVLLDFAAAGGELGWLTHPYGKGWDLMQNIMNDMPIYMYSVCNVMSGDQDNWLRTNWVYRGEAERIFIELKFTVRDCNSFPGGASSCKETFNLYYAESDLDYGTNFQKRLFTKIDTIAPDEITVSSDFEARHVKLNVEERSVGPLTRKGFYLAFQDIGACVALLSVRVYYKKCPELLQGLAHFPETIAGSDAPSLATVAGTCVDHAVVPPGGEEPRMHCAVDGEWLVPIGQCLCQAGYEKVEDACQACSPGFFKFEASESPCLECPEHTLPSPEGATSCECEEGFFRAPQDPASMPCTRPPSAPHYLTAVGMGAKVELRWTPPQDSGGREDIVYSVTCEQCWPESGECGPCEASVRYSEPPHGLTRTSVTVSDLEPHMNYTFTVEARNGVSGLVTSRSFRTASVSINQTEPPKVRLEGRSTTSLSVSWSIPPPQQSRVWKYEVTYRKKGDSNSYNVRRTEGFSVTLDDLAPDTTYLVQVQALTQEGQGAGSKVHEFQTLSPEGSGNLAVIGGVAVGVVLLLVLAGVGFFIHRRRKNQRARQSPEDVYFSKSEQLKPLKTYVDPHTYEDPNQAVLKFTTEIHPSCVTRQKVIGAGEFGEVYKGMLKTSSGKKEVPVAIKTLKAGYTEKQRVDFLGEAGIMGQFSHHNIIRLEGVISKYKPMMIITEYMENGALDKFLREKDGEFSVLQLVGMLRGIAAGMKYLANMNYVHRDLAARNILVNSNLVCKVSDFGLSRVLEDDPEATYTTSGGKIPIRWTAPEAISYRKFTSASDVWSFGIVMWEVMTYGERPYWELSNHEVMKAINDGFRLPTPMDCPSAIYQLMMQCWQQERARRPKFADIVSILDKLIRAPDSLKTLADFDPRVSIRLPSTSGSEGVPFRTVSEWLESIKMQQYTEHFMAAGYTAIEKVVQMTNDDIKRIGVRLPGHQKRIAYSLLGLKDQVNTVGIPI
T1 sequence (P23458 whole entry): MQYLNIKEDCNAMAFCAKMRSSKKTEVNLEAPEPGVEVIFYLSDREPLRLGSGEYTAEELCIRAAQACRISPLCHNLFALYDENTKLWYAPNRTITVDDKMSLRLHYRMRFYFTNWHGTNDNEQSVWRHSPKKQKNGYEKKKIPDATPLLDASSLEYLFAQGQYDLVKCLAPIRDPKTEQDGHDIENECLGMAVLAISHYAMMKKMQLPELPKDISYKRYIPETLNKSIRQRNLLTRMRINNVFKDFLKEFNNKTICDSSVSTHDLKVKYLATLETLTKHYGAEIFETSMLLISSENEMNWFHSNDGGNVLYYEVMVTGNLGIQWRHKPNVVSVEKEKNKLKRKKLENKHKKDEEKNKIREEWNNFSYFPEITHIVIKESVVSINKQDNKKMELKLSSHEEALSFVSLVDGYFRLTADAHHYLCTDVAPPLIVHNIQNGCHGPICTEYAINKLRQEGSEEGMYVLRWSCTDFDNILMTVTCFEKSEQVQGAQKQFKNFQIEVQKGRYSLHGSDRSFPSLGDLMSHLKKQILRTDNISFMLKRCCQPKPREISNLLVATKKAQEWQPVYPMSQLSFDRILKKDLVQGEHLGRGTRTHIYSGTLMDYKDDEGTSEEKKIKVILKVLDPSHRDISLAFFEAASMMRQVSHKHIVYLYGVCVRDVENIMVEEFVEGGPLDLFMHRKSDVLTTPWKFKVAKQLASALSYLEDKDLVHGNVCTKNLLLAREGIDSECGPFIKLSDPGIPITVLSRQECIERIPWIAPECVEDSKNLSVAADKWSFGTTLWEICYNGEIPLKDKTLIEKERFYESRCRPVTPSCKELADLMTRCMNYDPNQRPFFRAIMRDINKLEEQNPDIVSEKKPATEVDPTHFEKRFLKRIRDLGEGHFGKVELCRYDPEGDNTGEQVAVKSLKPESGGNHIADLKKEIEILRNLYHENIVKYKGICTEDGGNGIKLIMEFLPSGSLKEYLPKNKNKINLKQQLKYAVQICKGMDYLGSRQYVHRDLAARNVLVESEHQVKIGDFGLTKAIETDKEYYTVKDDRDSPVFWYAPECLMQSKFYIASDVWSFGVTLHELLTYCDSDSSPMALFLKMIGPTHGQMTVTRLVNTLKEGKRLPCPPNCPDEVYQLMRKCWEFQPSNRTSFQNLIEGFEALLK

On to `O=C(Cc1ccc(NC(=O)c2cccc(Cl)c2)cc1)NCc1ccccc1` [Compound 4e, N-(4-(2-(benzylamino)-2-oxoethyl)phenyl)-3-chlorobenzamide], for which, in test [1], the “Mean Final Score” value is 1.3907, the “Mean Kinase Statistic” value is -0.5828, the “Mean Significance Score” value is 0.8736 and the “Mean Specificity Score” value was determined as 0.5171. For the same compound, in test [2], the “Mean Final Score” value amounted to 2.4004, the “Mean Kinase Statistic” value is -0.7066, the “Mean Significance Score” value turned out to be 1.5807 and the “Mean Specificity Score” value was determined as 0.8197. Moreover, the “phosphokinase signal after 4e exposure, C-Jun” value in test [3] (HL60 cell lysate, treated) stood at 1811.31. In addition, the “Change in Signal, C-Jun” value in test [3] (treated vs untreated HL60) is 829.81. Also, the “% Change, C-Jun” value in test [3] (treated vs untreated HL60, Ser63 phosphorylation increase) is 84% and 84.55%. Further, in test [4], the “Mean Final Score” value is 1.9733, the “Mean Kinase Statistic” value is given as -0.5256, the “Mean Significance Score” value is reported as 1.3350 and the “Mean Specificity Score” value is 0.6383.
